According to publication PMC5322882, “Alterations in cellular pharmacokinetics and pharmacodynamics of elvitegravir in response to ethanol exposure in HIV-1 infected monocytic (U1) cells” (PLoS ONE, 2017):

Experiments:
[1] = tested on: U1 cells; experiment: Intracellular elvitegravir concentration in the presence of MRP1 or MDR1 inhibitors and cobicistat + ethanol; type: in vitro ADME; conditions: cells co-treated with EVG+COBI+ethanol (control), 24 hours
Protocol: (§1) At predetermined time points (0.5, 1, 3, 6, 12, and 24 hours), cells were collected for concentration-time profile experiments and medium was collected for HIV p24 measurement. At each time point, cells were washed twice with PBS and incubated with 400 μL of cold Radioimmunoprecipitation assay (RIPA) buffer for 10 minutes and the cell lysates were collected.

[2] = tested on: HIV-1 replication; experiment: HIV p24 ELISA in culture medium of U1 cells (HIV replication); type: cell-based; conditions: 24 hours; for effect on HIV p24 levels compared to control (in words): Fig 5; for HIV p24 level in culture media, mean (Fig 5): percentage of vehicle control, MK-571 50 μM, PSC-833 5 μM; for HIV p24 level in culture media, mean (Fig 2): percentage of vehicle control (100%), EVG 5 μM, COBI 2 μM, ethanol 20 mM
Protocol: (§2) HIV-infected U937 cell line—the U1 cells were obtained through the NIH AIDS Reagent Program (Germantown, MD). U1 cells were cultured in Roswell Park Memorial Institute (RPMI) 1640 media (Corning Inc, Tewksbury, MA) supplemented with 10% fetal bovine serum (Atlanta biologicals, Atlanta, GA), 1% L-glutamine, nonessential amino acid solution, sodium bicarbonate, and penicillin-streptomycin solution. Cells were plated at 0.9x10^6 cells/well of 6-well plates and were differentiated into macrophages with 100 nM Phorbol 12-myristate 13-acetate (PMA) for 72 hours prior to treatment. On the day of experiment, medium was removed and cells were washed twice with PBS and treated with media containing clinically relevant concentrations of (a) EVG (5 μM), (b) EVG+COBI (2 μM), (c) EVG+ethanol (20 mM), (d) EVG+COBI+ethanol. Ethanol-treated plates were placed in an incubator that humidified with 20 mM ethanol to prevent any loss of ethanol due to evaporation.
as §1
Influence of the combination of drugs on HIV replication was determined by measurement of HIV p24 levels in the cell culture medium. […] The concentration of p24 in the samples was quantitated by comparing with standards’ absorbance values and reported in percentage of control. The vehicle-treated samples were used as control and set as 100%.

[3] = tested on: MRP1; experiment: In-Cell Western analysis of MRP1 protein expression in U1 cells; type: cell-based; conditions: 24 hours; for change in MRP1 expression compared to control (in words): U1 cells; for MRP1 fluorescence signal intensity, mean (Fig 3B): relative response compared to vehicle controls, normalized to β-actin
Protocol: (§3) Detecting low levels of protein expression in native cells using traditional Western blotting can be difficult and therefore some studies successfully used In-Cell Western blotting (ICW) to quantify minor alterations in protein expression. We used manufacturer recommended (LI-COR Biosciences, NE) protocol in this study to perform ICW. U1 cells (0.03x10^6) were plated in sterile 96-well plates and differentiated with 100 nM PMA for 72 hours at 37°C in a humidified incubator while maintaining 5% CO2 air flow. On the day of treatment, each well was flushed with sterile PBS (250 μl) followed by addition of a 250 μl RPMI media containing various combinations of drugs previously mentioned. These plates were incubated for 24 hours prior to fixation. Medium from each well was removed by careful aspiration and cells were immediately fixed by addition of cold (-20°C) methanol (200 μl) followed by incubation of the plate at ambient temperature for 10 minutes with gentle shaking. Following incubation, methanol was carefully removed and wells were gently rinsed thrice with PBS (200 μl). After the last rinse, blocking was done by adding a 150 μl of Li-Cor blocking buffer and incubating the plate at room temperature with gentle shaking for 1.5 hours. Meanwhile, the primary antibodies were diluted in Li-Cor Odyssey blocking buffer using following dilutions: 3A4 (Rabbit Pab, Abcam # ab3572) 1: 200; MRP1 (mouse mab, Millipore # MAB4100) 1:50; MDR1(mouse mab, Millipore # MAB4334) 1:50; β-Actin (Mouse mAb Cell Signaling # 3700) 1:2000; β-Actin (Rabbit mAb Cell Signaling # 4970) 1:200. After blocking, 50 μl of desired antibody added to test wells and incubated overnight at 4°C with gentle shaking. On the following day, wells were washed five times with 200 μl PBS containing Tween-20 (0.1%) for 5 minutes at room temperature with gentle shaking. Secondary antibodies, goat anti-Mouse Mab (Li-Cor # 926–68170) and goat anti-Rabbit Mab (Li-Cor # 827–08365) were diluted in 1:1000 ratio in blocking buffer (0.2% -Tween-20, 0.01% SDS). After the final wash, wells were incubated with 50 μl of secondary antibody mixture for 1 hour in the dark at room temperature. After five washes, plates were scanned using Li-Cor Odyssey® SA and analyzed by using Image Studio V4.0 software (LI-COR Biosciences, NE). Background was subtracted from control wells and target protein signal intensities from triplicate wells were normalized to their respective β-actin intensities. Signal intensities were expressed as percent of relative responses (mean ± standard errors of mean) compared to vehicle controls.

[4] = tested on: MDR1; experiment: In-Cell Western analysis of MDR1 protein expression in U1 cells; type: cell-based; conditions: 24 hours; for change in MDR1 expression compared to control (in words): U1 cells; for MDR1 fluorescence signal intensity, mean (Fig 3C): relative response compared to vehicle controls, normalized to β-actin
Protocol: as §3

[5] = tested on: CYP3A4; experiment: In-Cell Western analysis of CYP3A4 protein expression in U1 cells; type: cell-based; conditions: 24 hours; for change in CYP3A4 expression compared to control (in words): U1 cells; for CYP3A4 fluorescence signal intensity, mean (Fig 3A): relative response compared to vehicle controls, normalized to β-actin
Protocol: as §3

[6] = design: method as in PMID 10817729; conditions: ethanol 0.7 g/kg with 600 mg of abacavir, 25 male HIV-infected individuals; cited from earlier work
[7] = Intracellular elvitegravir concentration-time profile (cellular pharmacokinetics) in U1 cells, LC-MS/MS; type: in vitro ADME; conditions: human, intracellular EVG in U1 cells
Protocol: as §2, §1
(§4) A previously reported LC-MS/MS method was used to quantitate EVG in cell lysates, culture medium, and plasma samples used in this study. Calibrants (0.003, 0.006, 0.013, 0.025, 0.05, 0.1, 0.15, 0.25, 0.5, and 1 μM) were prepared by serial dilution approach with the corresponding working solutions. EVG extraction from the calibrants and study samples was performed by adding 3-volumes of cold acetonitrile which contained a 138 nM ritonavir (RTV) as internal standard (IS). All samples were centrifuged at 8000 rpm for 10 minutes at 4°C and clear supernatants were transferred into vails with low-volume inserts for LC-MS/MS analysis. Samples (5 μL) were injected onto a Waters Xterra® MS C18 Column (125Å, 3.5 μ, 4.6 X 50 mm) (Waters Corporation, Milford, MA) attached to a Shimadzu Nexera HPLC system coupled with a tandem mass spectrometer (Triple Quad 5500 from AB SCIEX, Framingham, MA) with electron spray ionization in positive mode. Data was acquired and analyzed with the Analyst software package (ver.1.6.2, AB SCIEX, Framingham, MA). Concentrations were quantified by the Quantitative Analysis module (Analyst ver 1.6.2, AB SCIEX, Framingham, MA) from a standard curve fitted with a linear-regression model with a weighting factor of 1/x^2.
(§5) The concentration-time profiles were analyzed by non-compartmental modeling using Phoenix WinNonlin 6.4 (Certara L.P., Princeton, NJ). Area under the curve (AUCtot) was calculated by the log trapezoidal rule by log-linear regression. The maximum concentration achieved (Cmax) and the time to maximum concentration (Tmax) were determined from the concentration-time profiles. Effect of ethanol on EVG AUCtot and Cmax were compared using unpaired t test with Welch's correction. Tmax values were compared using Wilcoxon rank-sum test. All other data involving more than two groups were compared by one way ANOVA and multiple comparisons were performed by Tukey’s post hoc test. ANOVA data was presented along with multiplicity adjusted p values for each comparison. All the statistical analyses were done by Prism 6 (GraphPad Software, La Jolla, CA). A p-value ≤ 0.05 among treatment groups was considered significant.

[8] = tested on: U1 cells; experiment: as above; type: in vitro ADME; conditions: for cellular EVG concentration, mean: U1 cells
Protocol: as §2, §1, §4, §5

| Compound | effect on HIV p24 levels compared to control (in words) ([2]; U1 cells) | HIV p24 level in culture media, mean (Fig 5) [2] [%] | change in MRP1 expression compared to control (in words) [3] | MRP1 fluorescence signal intensity, mean (Fig 3B) [3] [%] | change in MDR1 expression compared to control (in words) [4] | MDR1 fluorescence signal intensity, mean (Fig 3C) [4] [%] | HIV p24 level in culture media, mean (Fig 2) [2] [%] | change in CYP3A4 expression compared to control (in words) [5] | CYP3A4 fluorescence signal intensity, mean (Fig 3A) [5] [%] | further results |
| --- | --- | --- | --- | --- | --- | --- | --- | --- | --- | --- |
| C/C=C/C[C@@H](C)C(=O)[C@H]1C(=O)N[C@@H](C(C)C)C(=O)N(C)CC(=O)N(C)[C@@H](CC(C)C)C(=O)N[C@@H](C(C)C)C(=O)N(C)[C@@H](CC(C)C)C(=O)N[C@@H](C)C(=O)N[C@H](C)C(=O)N(C)[C@@H](CC(C)C)C(=O)N(C)[C@@H](CC(C)C)C(=O)N(C)[C@@H](C(C)C)C(=O)N1C [PSC-833] | did not show any effect | 98.57 | – | – | – | – | – | – | – | effect on intracellular EVG concentration (in words) [1]: no significant effect |
| CN(C)C(=O)CCSC(SCCC(=O)O)c1cccc(/C=C/c2ccc3ccc(Cl)cc3n2)c1 (centres unmarked) [MK-571] | did not show any effect | 104.1 | – | – | – | – | – | – | – | – |
| CCO [EtOH, ethanol] | – | 135.4 | upregulated | 167.2 | significant induction | 128 | 135.4 | significant induction | 167.5 | increase in HIV p24 levels compared to vehicle control ([2]; U1 cells): 35% |
| Nc1nc(NC2CC2)c2ncn([C@H]3C=C[C@@H](CO)C3)c2n1 [abacavir] | – | – | – | – | – | – | – | – | – | increase in half-life with ethanol consumption [6]: 26%; increase in maximum concentration with ethanol consumption [6]: 15%; increase in total exposure with ethanol consumption [6]: 41% |
| COc1cc2c(cc1Cc1cccc(Cl)c1F)c(=O)c(C(=O)O)cn2[C@H](CO)C(C)C [EVG, elvitegravir] | – | – | no effect | 100 | no influence | 91.21 | 70.3 | no change | 104.7 | Cmax at 5 μM ([7]; EVG 5 μM, COBI 2 μM, ethanol 20 mM, mean ± SEM): 82 ± 4 µM; Tmax at 5 μM ([7]; median (range)): 12 h; cellular EVG concentration, mean ([8]; 0.5 hours): 41.39 μM/mg of protein; cellular EVG concentration, mean ([8]; 1 hour): 51.13 μM/mg of protein; cellular EVG concentration, mean ([8]; 3 hours): 59.00 μM/mg of protein; cellular EVG concentration, mean ([8]; 6 hours): 66.27 μM/mg of protein; cellular EVG concentration, mean ([8]; 12 hours): 78.01 μM/mg of protein; cellular EVG concentration, mean ([8]; 24 hours): 72.02 μM/mg of protein; AUCtot ([8]; intracellular EVG in PMA-differentiated U1 cells, 0 to 24 hours, EVG 5 μM, COBI 2 μM, ethanol 20 mM, mean ± SEM): 1733 ± 122 μMXh/mg; mean exposure (AUCtot) ([8]; intracellular EVG in U1 cells): 1733 ± 122 µM·h/mg; reduction of HIV p24 levels ([2]; U1 cells, compared to vehicle): 30% |
